Laboratory results from patent publication US12409206B2, “Use of cyclosporine analogues for treating fibrosis” (Hepion Pharmaceuticals, Inc., priority 2020, dated 2025).
Where two headings read alike, the source gives them in different places.

Tested on: human precision cut liver slices (PCLS)
Experiment: PCLS RNA-Seq, Stimulation Protocol: TGFb/PDGF+CRV vs TGFb/PDGF+Vehicle
Type: cell-based
Conditions: for fold change in RNA: presence of exogenous TGFβ+PDGF-BB, universal in all donors
Protocol: PCLS were obtained from 5 human donors who underwent resection of liver cancer. Replicate slices were collected from healthy margins of the resections and cultured for 4 or 6 days depending on the experimental protocol. In the Nonstimulation Protocol slices were cultured for 6 days and treated for the entire period with DMSO vehicle or 5 μM CRV431. In the Stimulation Protocol slices were rested for 1 day and then administered the cytokines, TGFβ and PDGF-BB, for 3 days to stimulate inflammation and fibrosis. DMSO vehicle, CRV431 (1 and 5 μM), Alk5i (10 μM), obeticholic acid (5 μM), elafibranor (5 μM), resmetirom ([…]), and Aramchol (5 μM) were administered individually as drug treatments in the Stimulation Protocol concurrent with TGFβ+PDGF-BB. Culture medium treatments were replaced daily.
Four types of evaluations were conducted on the PCLS: (a) secretion of inflammation and fibrosis biomarkers into the culture medium, (b) histological staining and quantitation of Sirius red as a measure of tissue fibrosis, (c) gene expression of inflammation and fibrosis biomarkers by RT-PCR, and (d) RNA sequencing (RNA-Seq) of the complete transcriptome. Each of the four types of evaluation is described below: • (a) Biomarker secretion. Spent culture medium was collected daily from duplicate slices for each treatment. ELISAs were used to quantify secretion of monocyte chemoattractant protein (MCP-1), interleukin-6 (IL-6), tissue inhibitor of metalloproteinase-1 (TIMP1), hyaluronic acid, fibronectin, and collagen 1α1. For each donor the mean level of biomarker secretion in each treatment group was expressed as a percentage change relative to DMSO vehicle, the percentages averaged for all donors, and finally the mean daily percentage change calculated from all days of evaluation. Results are shown in FIG. 8A (secreted markers-% daily average change). • (b) Sirius red histological staining. […] Sirius red was quantified morphometrically in the histological sections as the percentage area with Sirius red staining in 10 sections from each treatment. In the Nonstimulation Protocol the quantity of Sirius red staining was expressed relative to the vehicle group. In the Stimulation Protocol the quantity of Sirius red staining was expressed relative to nonstimulated PCLS (0%) and TGFβ+PDGF-BB-stimulated+vehicle PCLS (100%). Results are shown in FIG. 8B (Sirius red staining for tissue fibrosis). • (c) Gene expression by RT-PCR. RNA was isolated from duplicate liver slices per treatment at the end of the experiments and evaluated by RT-PCR for 5 markers of inflammation and fibrosis: MCP-1, IL-6, TIMP1, αSMA, and collagen 1α1. β actin was used as a reference gene to calculate relative levels of each target gene RNA. […] Results are shown in FIG. 8C (gene expression by RT-PCR). • (d) Gene expression by RNA-Seq. RNA sequencing of the complete transcriptome (30 million reads per sample) was conducted on vehicle and 5 μM CRV431 treatment groups from 3 donors both from the Nonstimulation and Stimulation Protocols. Data were analyzed by bioinformatics software programs to identify genes that were differentially expressed between vehicle and CRV431 treatments.
For the evaluation done for (d), 12 samples corresponding to 3 different donor slides which underwent 4 different treatments were studied. the comparisons carried out in this analysis are: (1) TGFb/PDGF+CRV vs TGFb/PDGF+Vehicle (V), and (2) Non-stimulated+CRV vs Non-stimulated+Vehicle. […] Table 1. Samples for evaluation (d)
Quality Control check was performed in all samples. All samples had more than 30 million reads and a quality score average >35 for almost all the bases in the sequences. The duplication levels are expected as it is RNA sequencing, and different copies of the same RNA are expected to be present in the samples. All samples had good amount of reads and quality, therefore all samples passed the QC checked and were included in the analysis. […]

CC[C@@H]1NC(=O)[C@H]([C@H](O)[C@H](C)CCCCCCNC(C)=O)N(C)C(=O)[C@H](C(C)C)N(C)C(=O)[C@H](CC(C)C)N(C)C(=O)[C@H](CC(C)C)N(C)C(=O)[C@@H](C)NC(=O)[C@H](C)NC(=O)[C@H](CC(C)C)N(C)C(=O)[C@H](C(C)C)NC(=O)[C@H](CC(C)C)N(C)C(=O)[C@@H](C)N(C)C1=O [CRV431]
log2FoldChange: 1.025 | log2FoldChange (gene AC009053.1, TGFb/PDGF+CRV vs TGFb/PDGF+Vehicle): 1.194 | log2FoldChange (gene AC134772.2, TGFb/PDGF+CRV vs TGFb/PDGF+Vehicle): −4.561 | log2FoldChange (gene ADH1B, TGFb/PDGF+CRV vs TGFb/PDGF+Vehicle): 2.156 | log2FoldChange (gene ADH1C, TGFb/PDGF+CRV vs TGFb/PDGF+Vehicle): 1.869 | log2FoldChange (gene ADH4, TGFb/PDGF+CRV vs TGFb/PDGF+Vehicle): 2.123 | log2FoldChange (gene ADH6, TGFb/PDGF+CRV vs TGFb/PDGF+Vehicle): 1.903 | log2FoldChange (gene ADIRF, TGFb/PDGF+CRV vs TGFb/PDGF+Vehicle): 1.402 | log2FoldChange (gene APLNR, TGFb/PDGF+CRV vs TGFb/PDGF+Vehicle): 0.844 | log2FoldChange (gene ASPG, TGFb/PDGF+CRV vs TGFb/PDGF+Vehicle): 0.91 | log2FoldChange (gene ATP13A4, TGFb/PDGF+CRV vs TGFb/PDGF+Vehicle): −3.082 | log2FoldChange (gene C7, TGFb/PDGF+CRV vs TGFb/PDGF+Vehicle): 0.739 | log2FoldChange (gene CA11, TGFb/PDGF+CRV vs TGFb/PDGF+Vehicle): −1.573 | log2FoldChange (gene CBFA2T2, TGFb/PDGF+CRV vs TGFb/PDGF+Vehicle): 1.299 | log2FoldChange (gene CD93, TGFb/PDGF+CRV vs TGFb/PDGF+Vehicle): −0.613 | log2FoldChange (gene CHST1, TGFb/PDGF+CRV vs TGFb/PDGF+Vehicle): −1.087 | log2FoldChange (gene COL5A3, TGFb/PDGF+CRV vs TGFb/PDGF+Vehicle): −0.842 | log2FoldChange (gene CXADR, TGFb/PDGF+CRV vs TGFb/PDGF+Vehicle): 1.61 | log2FoldChange (gene CYP4A11, TGFb/PDGF+CRV vs TGFb/PDGF+Vehicle): 1.611 | log2FoldChange (gene CYP26A1, TGFb/PDGF+CRV vs TGFb/PDGF+Vehicle): −1.283 | log2FoldChange (gene CYP26B1, TGFb/PDGF+CRV vs TGFb/PDGF+Vehicle): −0.656 | log2FoldChange (gene DCHS1, TGFb/PDGF+CRV vs TGFb/PDGF+Vehicle): −0.686 | log2FoldChange (gene DLL4, TGFb/PDGF+CRV vs TGFb/PDGF+Vehicle): −0.69 | log2FoldChange (gene DUOX2, TGFb/PDGF+CRV vs TGFb/PDGF+Vehicle): −2.182 | fold change in RNA (gene DUOX2): −4.5 fold | log2FoldChange (gene DVL1, TGFb/PDGF+CRV vs TGFb/PDGF+Vehicle): 0.635 | log2FoldChange (gene ENSG00000283623 (symbol NA), TGFb/PDGF+CRV vs TGFb/PDGF+Vehicle): −5.759 | log2FoldChange (gene ERVK13-1, TGFb/PDGF+CRV vs TGFb/PDGF+Vehicle): −1.125 | log2FoldChange (gene ESAM, TGFb/PDGF+CRV vs TGFb/PDGF+Vehicle): −0.573 | log2FoldChange (gene ESM1, TGFb/PDGF+CRV vs TGFb/PDGF+Vehicle): −1.401 | fold change in RNA (gene ESMI): −2.6 fold | log2FoldChange (gene ESR1, TGFb/PDGF+CRV vs TGFb/PDGF+Vehicle): 3.688 | log2FoldChange (gene F2RL3, TGFb/PDGF+CRV vs TGFb/PDGF+Vehicle): −0.711 | log2FoldChange (gene GLYATL1, TGFb/PDGF+CRV vs TGFb/PDGF+Vehicle): 1.438 | log2FoldChange (gene GPR4, TGFb/PDGF+CRV vs TGFb/PDGF+Vehicle): −0.9 | log2FoldChange (gene GRAP, TGFb/PDGF+CRV vs TGFb/PDGF+Vehicle): −0.772 | log2FoldChange (gene HIST2H2AA4, TGFb/PDGF+CRV vs TGFb/PDGF+Vehicle): −7.504 | log2FoldChange (gene IGHV4-61, TGFb/PDGF+CRV vs TGFb/PDGF+Vehicle): 7.957 | log2FoldChange (gene IGLON5, TGFb/PDGF+CRV vs TGFb/PDGF+Vehicle): −0.851 | log2FoldChange (gene ISLR2, TGFb/PDGF+CRV vs TGFb/PDGF+Vehicle): −1.27 | log2FoldChange (gene KDM6A, TGFb/PDGF+CRV vs TGFb/PDGF+Vehicle): 0.785 | log2FoldChange (gene LAMA4, TGFb/PDGF+CRV vs TGFb/PDGF+Vehicle): −0.939 | log2FoldChange (gene LIMS3, TGFb/PDGF+CRV vs TGFb/PDGF+Vehicle): −1.705 | log2FoldChange (gene LOXL2, TGFb/PDGF+CRV vs TGFb/PDGF+Vehicle): −0.948 | fold change in RNA (gene LOXL2): −1.9 fold | log2FoldChange (gene MCAM, TGFb/PDGF+CRV vs TGFb/PDGF+Vehicle): −0.841 | log2FoldChange (gene MEF2C, TGFb/PDGF+CRV vs TGFb/PDGF+Vehicle): −1.013 | log2FoldChange (gene MEG3, TGFb/PDGF+CRV vs TGFb/PDGF+Vehicle): −0.853 | log2FoldChange (gene MRC2, TGFb/PDGF+CRV vs TGFb/PDGF+Vehicle): −0.773 | log2FoldChange (gene MROH2A, TGFb/PDGF+CRV vs TGFb/PDGF+Vehicle): 3.641 | log2FoldChange (gene MT-CO1, TGFb/PDGF+CRV vs TGFb/PDGF+Vehicle): −0.85 | log2FoldChange (gene NID2, TGFb/PDGF+CRV vs TGFb/PDGF+Vehicle): −0.755 | log2FoldChange (gene NXPH4, TGFb/PDGF+CRV vs TGFb/PDGF+Vehicle): −0.808 | log2FoldChange (gene PAN2, TGFb/PDGF+CRV vs TGFb/PDGF+Vehicle): 1.019 | log2FoldChange (gene PANK3, TGFb/PDGF+CRV vs TGFb/PDGF+Vehicle): 0.687 | log2FoldChange (gene PCDH12, TGFb/PDGF+CRV vs TGFb/PDGF+Vehicle): −0.741 | log2FoldChange (gene PHF8, TGFb/PDGF+CRV vs TGFb/PDGF+Vehicle): 0.709 | log2FoldChange (gene PKLR, TGFb/PDGF+CRV vs TGFb/PDGF+Vehicle): 2.127 | log2FoldChange (gene PLXNA2, TGFb/PDGF+CRV vs TGFb/PDGF+Vehicle): 1.326 | log2FoldChange (gene POU6F1, TGFb/PDGF+CRV vs TGFb/PDGF+Vehicle): −1.716 | log2FoldChange (gene PPP1R16B, TGFb/PDGF+CRV vs TGFb/PDGF+Vehicle): −1.016 | log2FoldChange (gene RALGPS2, TGFb/PDGF+CRV vs TGFb/PDGF+Vehicle): 0.836 | log2FoldChange (gene RBMXL1, TGFb/PDGF+CRV vs TGFb/PDGF+Vehicle): −8.265 | log2FoldChange (gene RCCD1, TGFb/PDGF+CRV vs TGFb/PDGF+Vehicle): −1.838 | fold change in RNA (gene RCCD1): −3.6 fold | log2FoldChange (gene RHCG, TGFb/PDGF+CRV vs TGFb/PDGF+Vehicle): −0.927 | log2FoldChange (gene RPS7P1, TGFb/PDGF+CRV vs TGFb/PDGF+Vehicle): 2.668 | log2FoldChange (gene SLC4A8, TGFb/PDGF+CRV vs TGFb/PDGF+Vehicle): −2.641 | log2FoldChange (gene SLC26A6, TGFb/PDGF+CRV vs TGFb/PDGF+Vehicle): −0.692 | log2FoldChange (gene SLC39A5, TGFb/PDGF+CRV vs TGFb/PDGF+Vehicle): 1.92 | log2FoldChange (gene SMC5, TGFb/PDGF+CRV vs TGFb/PDGF+Vehicle): 0.799 | log2FoldChange (gene STRA6, TGFb/PDGF+CRV vs TGFb/PDGF+Vehicle): −1.639 | fold change in RNA (gene STRA6): −3.1 fold | log2FoldChange (gene TDO2, TGFb/PDGF+CRV vs TGFb/PDGF+Vehicle): 0.916 | log2FoldChange (gene TMEM70, TGFb/PDGF+CRV vs TGFb/PDGF+Vehicle): 1.062 | log2FoldChange (gene TTYH2, TGFb/PDGF+CRV vs TGFb/PDGF+Vehicle): −1.114 | fold change in RNA (gene UBD/FAT10): −2.0 fold | log2FoldChange (gene UBD, TGFb/PDGF+CRV vs TGFb/PDGF+Vehicle): −1.035 | log2FoldChange (gene VWA8, TGFb/PDGF+CRV vs TGFb/PDGF+Vehicle): 1.514 | log2FoldChange (gene ZC3H10, TGFb/PDGF+CRV vs TGFb/PDGF+Vehicle): 1.022 | log2FoldChange (gene ZDHHC20, TGFb/PDGF+CRV vs TGFb/PDGF+Vehicle): 1.207 | log2FoldChange (gene ZNF461, TGFb/PDGF+CRV vs TGFb/PDGF+Vehicle): 1.391
